Assay [1] has as its target T1, WT CBL-B (36-427) (Homo sapiens, UniProt Q13191).
T1 construct: N-terminal biotinylated WT CBL-B (36-427) and C-CBL (46-435) were captured on a streptavidin (SA) coated sensor chip
The assay is described as follows: Surface Plasmon Resonance (SPR) assay, binding affinity and kinetics, CBL-B. The conditions noted are these: SPR at 10° C., biotinylated WT CBL-B (36-427) on streptavidin chip; geometric mean; read-out: CBL-B SPR Kd (nM) GMean. A digest of the protocol: (§1)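 Biotinylated WT CBL-B (36-427) or C-CBL (46-435) captured on streptavidin chip (~5000–6000 RU); binding at 10° C in HEPES buffer pH 7.2 with 2% DMSO. Multi-cycle: 2-fold, 10-point series from 10 or 100 μM, 90 s association. Single-cycle: 3-fold, 6-point, 0.001–1 μM, 120 s association, >5400 s dissociation.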

Assay [2] has as its target T2, C-CBL (residues 46-435) (Homo sapiens, UniProt P22681).
T2 construct: Purified CBL-B (residues 36-427) and C-CBL (residues 46-435) proteins from baculovirus-infected insect cells; made in house; host or cells: baculovirus-infected insect cells
T2 sequence (P22681 46-435): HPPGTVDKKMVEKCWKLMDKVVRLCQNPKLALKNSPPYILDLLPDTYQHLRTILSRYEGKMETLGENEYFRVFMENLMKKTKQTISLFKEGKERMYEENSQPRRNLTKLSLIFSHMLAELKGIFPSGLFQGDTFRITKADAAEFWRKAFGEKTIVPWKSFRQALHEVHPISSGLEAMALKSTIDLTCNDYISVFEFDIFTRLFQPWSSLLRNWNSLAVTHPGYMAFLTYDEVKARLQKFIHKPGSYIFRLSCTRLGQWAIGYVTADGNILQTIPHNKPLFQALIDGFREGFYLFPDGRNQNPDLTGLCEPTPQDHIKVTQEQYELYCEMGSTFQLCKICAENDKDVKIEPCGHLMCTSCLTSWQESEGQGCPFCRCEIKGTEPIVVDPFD
The assay is described as follows: Ligand Displacement Assay (LDA), HTRF competitive binding against BODIPY-labeled fluorescent tracer, C-CBL. The conditions noted are these: geometric mean of the number of tests, read-out: C-CBL Ki (nM) GMean. A digest of the protocol: (§2)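 Terbium-streptavidin donor on BirA-biotinylated, AviTagged protein from baculovirus-infected insect cells; BODIPY tracer as acceptor. Compound titrations were three-fold and duplicated, […] with 2% DMSO final.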
On the technique in general: Time-resolved FRET reads energy transfer from a long-lived donor to a nearby acceptor.

Assay [3] addresses T3, CBL-B (residues 36-427) (Homo sapiens, UniProt Q13191).
T3 construct: Purified CBL-B (residues 36-427) and C-CBL (residues 46-435) proteins from baculovirus-infected insect cells; made in house; host or cells: baculovirus-infected insect cells
Briefly: Ligand Displacement Assay (LDA), HTRF competitive binding against BODIPY-labeled fluorescent tracer, CBL-B. As to conditions: geometric mean of the number of tests, read-out: CBL-B Ki (nM) GMean. In short, it runs like this:
as §2

The target of assay [4] is T4, C-CBL (46-435) (Homo sapiens, UniProt P22681).
T4 construct: N-terminal biotinylated WT CBL-B (36-427) and C-CBL (46-435) were captured on a streptavidin (SA) coated sensor chip
T4 sequence (P22681 46-435): T2 sequence (P22681 46-435)
The assay is described as follows: Surface Plasmon Resonance (SPR) assay, binding affinity and kinetics, C-CBL. The conditions noted are these: SPR at 10° C., biotinylated C-CBL (46-435) on streptavidin chip; geometric mean; read-out: C-CBL SPR Kd (nM) GMean. A digest of the protocol:
as §1

As a reminder, the Kd is the equilibrium constant for the complex coming apart. As usually defined, the Ki is the equilibrium dissociation constant of an inhibitor or competing ligand from its target. For the compound `CN(C)c1nc(C(F)(F)F)cc2c(-c3cccc(C4(Cc5nncn5C)COC4)c3)n[nH]c12` [Example J9, N,N-dimethyl-3-(3-{3-[(4-methyl-4H-1,2,4-triazol-3-yl)methyl]oxetan-3-yl}phenyl)-5-(trifluoromethyl)-1H-pyrazolo[3,4-c]pyridin-7-amine], the results for the Kd in assay [1] and in assay [4] were 30.1 nM and 244 nM, respectively. Besides, the figures for the Ki in assay [2] and in assay [3] were 228 nM and 92.2 nM, respectively.
As to `CCC(c1cccc(-c2n[nH]c3cnc(C(F)(F)F)cc23)c1)c1nncn1C` (single isomer, unassigned) [Example A2, 3-{3-[(1ξ)-1-(4-methyl-4H-1,2,4-triazol-3-yl)propyl]phenyl}-5-(trifluoromethyl)-1H-pyrazolo[3,4-c]pyridine], the dissociation constant Kd in assay [1] worked out at 35.8 nM; in assay [4], 251 nM. Besides, the inhibitory constant (Ki) amounted to 224 nM in assay [2] and 80.4 nM in assay [3].
In the case of `Cn1cnnc1[C@@H](c1cccc(-c2n[nH]c3c(CN4CCCCC4)nc(C(F)(F)F)cc23)c1)C1CCC1` [Example D95], the dissociation constant Kd in assay [1] was 6.5 nM; in assay [4] it was 226 nM. Also, the inhibition constant (Ki) was 360 nM in assay [2] and 40.7 nM in assay [3].
In the same order, the values of `Cn1cnnc1[C@@H](c1cccc(-c2n[nH]c3c(CN4CCC4)nc(C(F)(F)F)cc23)c1)C1CCC1` [Example D83] are 7.6 nM, 177 nM, 198 nM and 27.7 nM.
As for `Cn1cnnc1CC1(c2cccc(-c3n[nH]c4c(OCCN)nc(C(F)(F)F)cc34)c2)COC1` [Example J3, 2-{[3-(3-{3-[(4-methyl-4H-1,2,4-triazol-3-yl)methyl]oxetan-3-yl}phenyl)-5-(trifluoromethyl)-1H-pyrazolo[3,4-c]pyridin-7-yl]oxy}ethan-1-amine], the dissociation constant (Kd) in assay [1] stood at 3.2 nM; in assay [4], 53.6 nM. Moreover, the values for the Ki in assay [2] and in assay [3] were 76.3 nM and 16.7 nM, respectively.
In the same order, the values of `CC(C)NC(C)c1nc(C(F)(F)F)cc2c(-c3cccc(C4(Cc5nncn5C)COC4)c3)n[nH]c12` (single isomer, unassigned) [Example C79, N-{(1ξ)-1-[3-(3-{3-[(4-methyl-4H-1,2,4-triazol-3-yl)methyl]oxetan-3-yl}phenyl)-5-(trifluoromethyl)-1H-pyrazolo[3,4-c]pyridin-7-yl]ethyl}propan-2-amine] are 3.2 nM, 121 nM, 94.1 nM and 20.4 nM.
In the same order, the values of `C[C@@H](c1nc(C(F)(F)F)cc2c(-c3cccc(C4(Cc5nncn5C)COC4)c3)n[nH]c12)N1CC(F)(F)C1` (single isomer, unassigned) [Example D45] are 5.2 nM, 83.9 nM, 80.3 nM and 19.9 nM.
For `CNc1nc2[nH]nc(-c3cccc([C@H](c4nncn4C)C4CCC4)c3)c2cc1C(F)(F)F` [E2, 3-{3-[(R)-cyclobutyl(4-methyl-4H-1,2,4-triazol-3-yl)methyl]phenyl}-N-methyl-5-(trifluoromethyl)-1H-pyrazolo[3,4-b]pyridin-6-amine] the same measures were 53.9 nM, 1730 nM, 2650 nM and 244 nM.
As to `CNCc1nc(C(F)(F)F)cc2c(-c3cccc([C@H](c4nncn4C)C4CCC4)c3)n[nH]c12` [Example C103, 1-[3-{3-[(R)-cyclobutyl(4-methyl-4H-1,2,4-triazol-3-yl)methyl]phenyl}-5-(trifluoromethyl)-1H-pyrazolo[3,4-c]pyridin-7-yl]-N-methylmethanamine], the dissociation constant Kd in assay [1] is 20.5 nM; in assay [4], 349 nM. In addition, the values for the Ki in assay [2] and in assay [3] were 389 nM and 46 nM, respectively.
In the same order, the values of `Cn1cnnc1[C@@H](c1cccc(-c2n[nH]c3c(CNC4CCNC(=O)C4)nc(C(F)(F)F)cc23)c1)C1CCC1` (single isomer, unassigned) [Example C87] are 8.4 nM, 175 nM, 210 nM and 21.2 nM.
For `CC(NC1CC(F)(F)C1)c1nc(C(F)(F)F)cc2c(-c3cccc(C4(Cc5nncn5C)COC4)c3)n[nH]c12` (single isomer, unassigned) [Example C94, 3,3-difluoro-N-{(1ξ)-1-[3-(3-{3-[(4-methyl-4H-1,2,4-triazol-3-yl)methyl]oxetan-3-yl}phenyl)-5-(trifluoromethyl)-1H-pyrazolo[3,4-c]pyridin-7-yl]ethyl}cyclobutan-1-amine] the same measures were 2.5 nM, 15 nM, 14.9 nM and 2.8 nM.
On to `Cn1cnnc1CC1(c2cccc(-c3n[nH]c4cnc(OC(F)F)cc34)c2)COC1` [Example B10, 5-(difluoromethoxy)-3-(3-{3-[(4-methyl-4H-1,2,4-triazol-3-yl)methyl]oxetan-3-yl}phenyl)-1H-pyrazolo[3,4-c]pyridine], for which the equilibrium dissociation constant (Kd) in assay [1] came out at 22.2 nM; in assay [4], 141 nM. For the same compound, the inhibition constant (Ki) came to 187 nM in assay [2] and 57.8 nM in assay [3].
For `Cn1cnnc1[C@@H](c1cccc(-c2n[nH]c3c(CN4CCOCC4)nc(C(F)(F)F)cc23)c1)C1CCC1` [Example D96] the same measures were 5.5 nM, 120 nM, 377 nM and 41.9 nM.
For `Cn1cnnc1CC1(c2cccc(-c3n[nH]c4c(CN[C@H]5CCOC5)nc(C(F)(F)F)cc34)c2)COC1` [Example C50] the same measures were 14.5 nM, 145 nM, 90 nM and 24.7 nM.
For `C[C@@H](c1nc(C(F)(F)F)cc2c(-c3cccc(C4(Cc5nncn5C)COC4)c3)n[nH]c12)N1CC[C@H](F)C1` (single isomer, unassigned) [Example D97], the Kd is 31.9 nM in assay [1] and 230 nM in assay [4]. The results for the Ki in assay [2] and in assay [3] were 139 nM and 25 nM, respectively.
For `Cn1cnnc1[C@@H](c1cccc(-c2n[nH]c3c(CN[C@H]4CCC[C@H]4O)nc(C(F)(F)F)cc23)c1)C1CCC1` [Example C122, (1R,2S)-2-({[3-{3-[(R)-cyclobutyl(4-methyl-4H-1,2,4-triazol-3-yl)methyl]phenyl}-5-(trifluoromethyl)-1H-pyrazolo[3,4-c]pyridin-7-yl]methyl}amino)cyclopentan-1-ol] the same measures were 5.5 nM, 146 nM, 294 nM and 29.2 nM.
In the same order, the values of `CN1CC[C@@H](Oc2nc(C(F)(F)F)cc3c(-c4cccc([C@H](c5nncn5C)C5CCC5)c4)n[nH]c23)C1` [Example J4, 3-{3-[(R)-cyclobutyl(4-methyl-4H-1,2,4-triazol-3-yl)methyl]phenyl}-7-{[(3R)-1-methylpyrrolidin-3-yl]oxy}-5-(trifluoromethyl)-1H-pyrazolo[3,4-c]pyridine] are 3.7 nM, 145 nM, 83.6 nM and 9.2 nM.
As to `CCNC(C)c1nc(C(F)(F)F)cc2c(-c3cccc(C4(Cc5nncn5C)COC4)c3)n[nH]c12` (single isomer, unassigned) [Example C84, (1ξ)-N-ethyl-1-[3-(3-{3-[(4-methyl-4H-1,2,4-triazol-3-yl)methyl]oxetan-3-yl}phenyl)-5-(trifluoromethyl)-1H-pyrazolo[3,4-c]pyridin-7-yl]ethan-1-amine], the Kd in assay [1] amounted to 5.8 nM; in assay [4] it was 99 nM. For the same compound, the Ki in assay [2] was determined as 144 nM; in assay [3] it was 25.1 nM.
With `Cn1cnnc1CC1(c2cccc(-c3n[nH]c4c(CN5CC[C@H](F)C5)nc(C(F)(F)F)cc34)c2)COC1` [Example C73, 7-{[(3S)-3-fluoropyrrolidin-1-yl]methyl}-3-(3-{3-[(4-methyl-4H-1,2,4-triazol-3-yl)methyl]oxetan-3-yl}phenyl)-5-(trifluoromethyl)-1H-pyrazolo[3,4-c]pyridine], the dissociation constant (Kd) amounted to 9 nM in assay [1] and 94 nM in assay [4]. In addition, the Ki in assay [2] worked out at 111 nM; in assay [3], 19.3 nM.

The values are drawn from US20260125375A1 (Pfizer Inc., priority 2022, published 2026).
